Measurements reported in patent publication US9981946B2, “Pyridine-substituted 2-aminopyridine protein kinase inhibitors” (CHIA TAI TIANQING PHARMACEUTICAL GROUP CO., LTD, priority 2014, dated 2018).

Test system: human non-small cell lung carcinoma NCI-H2228 xenografts
Test: Therapeutic effect on NCI-H2228 xenografts in nude mice
Type: in vivo
Settings: D0-13 once a day; for Average tumor volume D0: D0 baseline at grouping
Method: The following experimental method was used: Nude mice was inoculated subcutaneously with human non-small cell lung carcinoma NCI-H2228 cells, the mice were randomly grouped (D0) and administered until the tumor grew to 80-200 mm^3. Measuring the tumor volume, weighing the mice, and recording the data twice a week. Tumor volume (V) was calculated as:
[…], wherein a and b represented length and width respectively.
T/C(%)=(T-T0)/(C-C0)×100, wherein T, C respectively represented the tumor volume at the end of the experiment; T0, C0 respectively represented the tumor volume at the start of the experiment.
When tumor regression was observed, T/C(%)=(T-T0)/T0×100, wherein T was the tumor volume at the end of the experiment; T0 was the tumor volume at the start of the experiment.
In the table: the solvent group (distilled water containing 0.1% Tween-80) was a control group, the compound of the treatment groups was formulated with distilled water containing 0.1% Tween-80.
D0-20 represented administrating once a day from day 0 (D0) for consecutive 21 days; D0-13 represented administrating once a day from day 0 (D0) for consecutive 14 days.
P value was obtained from student's t test compared with the control group.
n was the number of mice, for the control group, the number of test mice n was 12, and n was 6 for the treatment group.

**Q.** Which results are given for COc1cc(N2CCNC[C@@H]2C)ncc1-c1cnc(N)c(O[C@H](C)c2c(Cl)ccc(F)c2Cl)c1 [compound of formula I, 5-((R)-1-(2,6-dichloro-3-fluorophenyl)ethoxy)-4′-methoxy-6′-((S)-2-methylpiperazin-1-yl)-3,3′-bipyridin-6-amine]?
**A.** Average tumor volume D0 (12.5 mg/kg PO): 134.3 mm^3; % T/C D21 (12.5 mg/kg PO, D21): 22%; Average tumor volume D21 (12.5 mg/kg PO, D21): 394.8 mm^3; % Inhibition rate D21 (12.5 mg/kg PO, D21, 100-T/C(%)): 78%; Average tumor volume D0 (25 mg/kg PO): 131.0 mm^3; Average tumor volume D21 (25 mg/kg PO, D21): 21.7 mm^3; % T/C D21 (25 mg/kg PO, D21, tumor regression, T/C=(T-T0)/T0×100): −83%
